# According to patent US8487003B2, “Treatment of cancer by administration of perfluorooctanoic acid” (CXR Biosciences Limited, priority 2001, dated 2013):
# Legend:
# Wistar rats = test: Non-diabetic Wistar rats, oral gavage daily for 14 days; type: in vivo, rat
# Method: (§1) The GK/Mol rat is a non-obese, diabetic animal that is widely accepted as a model of Type II diabetes. In order to measure the ‘normal’ response, non-diabetic Wistar rats were also used in the study.
# (§2) One group of 10 GK/Mol rats was also treated with vehicle (water) alone.
# (§3) Twenty-four hours after the last dose the animals were killed by an increasing concentration of carbon dioxide. Blood was collected by cardiac puncture and plasma prepared and stored at −70° C. until analysed. Major tissues were weighed, sampled, flash frozen in liquid nitrogen and stored at −70° C.
# (§4) Plasma was analysed for, triglycerides, cholesterol, glucose, insulin and leptin as described in section 1.1.1.
# MCF7 cells = test: In vitro cytotoxicity (MTT), MCF7; type: cell-based, human; settings: MCF7, 4 hours exposure
# Method: (§5) HT-29 cells (human colon tumour-derived), MCF7 cells (human breast cancer-derived) and HepG2 cells (human liver cancer-derived) were cultured in Dulbecco's Modified Eagles Medium (DMEM) supplemented with 10% heat-inactivated foetal calf serum, 2 mM L-glutamine, penicillin (50 IU/ml), streptomycin (50 μg/ml) and 1% non-essential amino acids. Cells were harvested by trypsinisation and diluted to 5×10^4 cells/ml, and 200 μl of cell suspension was plated into each well of a 96 well plate and allowed to attach overnight at 37° C. with 5% CO2. […] 20 μl of a 5 mg/1 m MTT solution was added to each well and the cells were incubated for 4 hours at 37° C. The medium was removed and 200 μl DMSO was added to dissolve formazan crystals. Plates were read at 570 nm and background at 690 nm was subtracted.
# HT-29 cells = test: In vitro cytotoxicity (MTT), HT-29; type: cell-based, human; settings: HT-29, 4 hours exposure
# Method: as §5
# male Fischer 344 rats = test: APFO in diet of male Fischer 344 rats for up to one year; type: in vivo, rat; settings: 300 ppm in diet
# Method: Body weights were initially determined daily and then weekly. Food consumption was determined weekly. Clinical observations were made daily.
# Rats were sacrificed at 1, 2, 7, 14, 28, 90, 182 and 365 days. There were 8 rats per group. At sacrifice blood was sampled by cardiac puncture and submitted for clinical chemistry.
# HepG2 cells = test: In vitro cytotoxicity (MTT), HepG2; type: cell-based, human; settings: HepG2, 4 hours exposure
# Method: as §5
# HT-29 xenograft = HT-29 xenograft model in nude mice; type: in vivo, nu/nu mice; settings: for lag phase of tumour growth: ip 3 times per week
# Method: Athymic nude (nu/nu) mice from ICRF stock (HsdOla:ICRF-nu) were obtained from Clare Hall (Pofters Bar, UK). All animals were female and approximately 9 weeks old. Animals, housed in isolator cages and handled under laminar flow, were divided into one control group and two treatment groups, with 5 female mice per group for both the prophylactic and therapeutic schedules
# HT-29 cells were cultured according to the conditions described in section 2.1.1. Cells were harvested, pooled by centrifugation and resuspended in 5 ml medium to which 5 ml Matrigel (basement membrane matrix) was added. 100 μl of cell suspension was injected subcutaneously into each flank of the mice (1.75×10^6 cells per flank).
# The volume of the dosing solution was 10 ml/kg bodyweight. Control animals received an equivalent volume of water.
# Animal bodyweights were recorded throughout the study. Tumour growth was measured 3 times per week using digital calipers and the volume was calculated using the formula:
# Where d1=mean length (n=2) and d2=mean width (n=2). (NB, n=4 if tumour was an irregular shape).
# The maximum permitted tumour volume, according to the terms of the Home Office license, was 1.44 cm^3. Results were expressed graphically for each time point as mean tumour volumes. Tumour weights were recorded at the end of the study, and tumour samples were either snap frozen in liquid nitrogen or fixed in formal saline for further analysis.
# C57BL/6J-ob/ob mice = test: Obese ob/ob mouse model, oral gavage daily for 14 days; type: in vivo
# Method: (§6) The C57BL/6J-ob/ob mouse is an obese, leptin-deficient animal that is widely accepted as a model of obesity and diabetes. Age-paired, disease-free (lean) animals (C57BL/6J-+/+) were also included in the study to observe the ‘normal’ response.
# (§7) One group of 10 ob/ob mice was also treated with vehicle (water) alone.
# as §3
# (§8) Plasma was analysed for triglycerides, cholesterol and glucose using kits purchased from Sigma (Poole, Dorset). Concentrations of plasma insulin and leptin were determined using commercially available enzymeimmunoassay-based kits from Amersham Life Sciences and Crystalchem Inc., (Chicago) respectively. All assays were carried out as specified by the manufacturer.
# C57BL/6J-+/+ mice = test: Lean disease-free +/+ mice, oral gavage daily for 14 days; type: in vivo, mouse; settings: 25 mg/kg/day
# Method: as §6, §7, §3, §8
# GK/Mol rats = test: Diabetic GK/Mol rat model, oral gavage daily for 14 days; type: in vivo
# Method: as §1, §2, §3, §4
# mouse PPAR alpha = target: T1, mouse PPAR alpha (Mus musculus, UniProt P23204); test: Mouse PPAR alpha transactivation assay in COS-1 cells; type: cell-based; settings: luciferase reporter, 16 hours, read-out: EC50, activation of mouse PPAR alpha
# T1 construct: expressed in transfected cells; host or cells: COS-1 cells
# T1 sequence (P23204 1-468): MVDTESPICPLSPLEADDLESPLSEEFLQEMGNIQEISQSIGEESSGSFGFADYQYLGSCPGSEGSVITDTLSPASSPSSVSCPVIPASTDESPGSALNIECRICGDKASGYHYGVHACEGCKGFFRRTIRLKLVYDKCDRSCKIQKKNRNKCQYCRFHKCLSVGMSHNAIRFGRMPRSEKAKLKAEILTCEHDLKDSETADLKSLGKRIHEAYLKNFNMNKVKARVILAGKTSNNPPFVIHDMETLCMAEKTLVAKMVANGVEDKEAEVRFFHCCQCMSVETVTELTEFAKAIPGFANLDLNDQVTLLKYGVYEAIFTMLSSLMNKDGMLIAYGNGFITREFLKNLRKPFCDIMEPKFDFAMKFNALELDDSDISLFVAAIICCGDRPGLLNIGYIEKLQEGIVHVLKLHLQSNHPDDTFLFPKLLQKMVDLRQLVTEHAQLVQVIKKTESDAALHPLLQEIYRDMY
structure (smiles),measurement,setting,value
"N.O=C(O)C(F)(F)C(F)(F)C(F)(F)C(F)(F)C(F)(F)C(F)(F)C(F)(F)F [APFO, ammonium perfluorooctanoate]",bodyweight gain,Wistar rats; 30 mg/kg,no effect
same,food consumption versus controls,Wistar rats; 30 mg/kg,no difference
same,"plasma cholesterol, % of control values",Wistar rats; 30 mg/kg,73%
same,"plasma insulin, % of control values",Wistar rats; 30 mg/kg,about 10%
same,group mean plasma leptin lower than controls by,Wistar rats; 30 mg/kg/day,approximately 40%
same,concentration eliciting a cytotoxic effect,MCF7 cells,exceeding 500 μM
same,concentration eliciting a cytotoxic effect,HT-29 cells,exceeding 500 μM
same,adverse clinical symptoms or changes in activity,male Fischer 344 rats,not accompanied by any adverse clinical symptoms
same,bodyweight gain,male Fischer 344 rats,marked reductions
same,plasma triglycerides,male Fischer 344 rats; 7 days and beyond,decreased
same,"food consumption per rat, % of control values",male Fischer 344 rats; after first week,80-90%
same,plasma cholesterol concentration,male Fischer 344 rats; all time points (1-365 days),decreased
same,plasma glucose concentration,male Fischer 344 rats; all time points (1-365 days),decreased
same,plasma insulin concentration,male Fischer 344 rats; all time points (1-365 days),decreased
same,decrease of food consumed per unit bodyweight,male Fischer 344 rats; first week,approximately 30%
same,"food consumption per rat, % of control consumption",male Fischer 344 rats; first week of treatment,approximately 50%
same,body weights lower than concurrent controls,male Fischer 344 rats; up to one year,25-30%
same,concentration eliciting a cytotoxic effect,HepG2 cells,exceeding 500 μM
same,animal body weight versus control,"HT-29 xenograft; prophylactic and therapeutic groups, 15 and 25 mg/kg ip",no significant difference
same,macroscopic appearance of tumours,"HT-29 xenograft; prophylactic group, control tumours solid",fluid-filled
same,tumour volume course,"HT-29 xenograft; prophylactic, 15 mg/kg ip",continued to increase
same,tumour weight smaller than in control animals,"HT-29 xenograft; prophylactic, 15 mg/kg ip",22%
same,time after which tumour growth reached a plateau,"HT-29 xenograft; prophylactic, 25 mg/kg ip",26 days
same,tumour weight smaller than in control animals,"HT-29 xenograft; prophylactic, 25 mg/kg ip",58%
same,lag phase of tumour growth,"HT-29 xenograft; prophylactic, control 15 days",22 days
same,tumour weight smaller than controls,"HT-29 xenograft; therapeutic, 15 mg/kg ip",45%
same,tumour weight smaller than controls,"HT-29 xenograft; therapeutic, 25 mg/kg ip",37%
same,plateau of tumour growth,"HT-29 xenograft; therapeutic, highest dose group 25 mg/kg, study incomplete",No plateau was reached
same,lag phase of tumour growth,"HT-29 xenograft; therapeutic, control 17 days",26 days
same,other adverse clinical observations,"C57BL/6J-ob/ob mice; 5, 15, 25 mg/kg/day, 14 days",No other adverse clinical observations
same,reduction in plasma insulin concentration,"C57BL/6J-ob/ob mice; all treated ob/ob mice (5, 15, 25 mg/kg/day)",greater than 90%
same,plasma triglyceride concentration,"C57BL/6J-ob/ob mice; ob/ob, 5 mg/kg/day",no effect
same,reduction of plasma glucose,"C57BL/6J-ob/ob mice; ob/ob, 5 mg/kg/day",approximately 50%
same,bodyweight,"C57BL/6J-ob/ob mice; ob/ob, 5 mg/kg/day, 14 days",unaffected
same,bodyweight loss over the study period,"C57BL/6J-ob/ob mice; ob/ob, 15 mg/kg/day, 14 days",20%
same,reduction in plasma cholesterol concentration,"C57BL/6J-ob/ob mice; ob/ob, 25 mg/kg/day",~30%
same,bodyweight loss as percentage of initial bodyweight,"C57BL/6J-ob/ob mice; ob/ob, 25 mg/kg/day, 14 days",33%
same,"plasma triglyceride, % of control values","C57BL/6J-ob/ob mice; ob/ob, 15 or 25 mg/kg/day",40%
same,"plasma glucose, % of control values","C57BL/6J-ob/ob mice; ob/ob, 15 or 25 mg/kg/day, dose-related",approximately 20%
same,epididymal fat pad weight,"C57BL/6J-ob/ob mice; ob/ob, dose-related",decreased
same,food consumption lower than control mice,"C57BL/6J-ob/ob mice; ob/ob, high dose 25 mg/kg/day",76%
same,food consumption lower than control mice,"C57BL/6J-ob/ob mice; ob/ob, intermediate dose 15 mg/kg/day",53%
same,reduction in plasma cholesterol concentration,"C57BL/6J-ob/ob mice; ob/ob, low and mid dose levels (5, 15 mg/kg/day)",not evident
same,food consumption lower than control mice,"C57BL/6J-ob/ob mice; ob/ob, low dose 5 mg/kg/day",17%
same,epididymal fat pad weight,C57BL/6J-+/+ mice,decreased
same,overall food consumption lower than +/+ controls,C57BL/6J-+/+ mice,31%
same,"plasma glucose, % of control values",C57BL/6J-+/+ mice,55%
same,plasma insulin concentration,C57BL/6J-+/+ mice,marked reduction
same,plasma leptin concentration decreased,C57BL/6J-+/+ mice,"to, or below the level of quantitation"
same,"plasma triglycerides, % of control values",C57BL/6J-+/+ mice,35%
same,reduction in plasma cholesterol concentration,C57BL/6J-+/+ mice,~30%
same,bodyweight loss as percentage of initial bodyweight,C57BL/6J-+/+ mice; 14 days,26%
same,plasma leptin concentration,GK/Mol rats; GK/Mol rats,no differences
same,"plasma glucose, % of control values","GK/Mol rats; GK/Mol, 30 mg/kg/day",about 85%
same,"total food consumption, % of control values","GK/Mol rats; GK/Mol, 3, 10, 30 mg/kg, not related to dose",86-98%
same,"plasma insulin, % of control values","GK/Mol rats; GK/Mol, dose-dependent reduction reaching this value",about 10%
same,"body weight gain, % of control values","GK/Mol rats; GK/Mol, high dose 30 mg/kg",44%
same,"body weight gain, % of control values","GK/Mol rats; GK/Mol, low dose 3 mg/kg",90%
same,"body weight gain, % of control values","GK/Mol rats; GK/Mol, mid dose 10 mg/kg",71%
same,EC50,mouse PPAR alpha,102 µM
